Experimental data taken from patent US10472347B2, “Aminopyrazine compounds with A2A antagonist properties” (Merck Sharp & Dohme Corp., priority 2014, dated 2019).

Target: T1, human A2a receptor (Homo sapiens, UniProt P29274)
T1 construct: purchased Perkin-Elmer RBHA2AM400UA; host or cells: HEK293 cells (membranes)
Test: A2a competition binding assay, Scintillation Proximity technology
Details: membranes from HEK293 cells expressing human A2a receptor; Ki by Cheng-Prusoff equation
Summary of the method: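 Membranes from HEK293 cells expressing human A2a, adenosine deaminase-treated, incubated 1 h at room temperature with compound (3000 to 0.15 nM) and 0.5 nM tritiated pyrazolotriazolopyrimidine radioligand on WGA SPA beads in Ca/Mg-free PBS + 10 mM MgCl2. Non-specific binding with 1 μM CGS15943; Ki by Cheng-Prusoff.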

T1 sequence (P29274 whole entry): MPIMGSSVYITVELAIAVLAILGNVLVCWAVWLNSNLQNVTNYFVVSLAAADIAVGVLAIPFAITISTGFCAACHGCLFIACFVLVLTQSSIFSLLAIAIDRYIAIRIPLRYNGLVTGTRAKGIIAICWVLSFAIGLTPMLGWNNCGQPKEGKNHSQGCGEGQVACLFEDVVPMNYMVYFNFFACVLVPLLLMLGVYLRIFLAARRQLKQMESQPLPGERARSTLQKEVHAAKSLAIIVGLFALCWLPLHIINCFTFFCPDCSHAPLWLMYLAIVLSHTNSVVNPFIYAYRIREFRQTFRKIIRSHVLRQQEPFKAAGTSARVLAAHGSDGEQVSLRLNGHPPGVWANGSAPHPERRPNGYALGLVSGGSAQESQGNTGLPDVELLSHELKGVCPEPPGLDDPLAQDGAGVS

Compound | Ki [nM]
Cc1nc(C(=O)NCc2cc(F)ccc2O)c(N)nc1-c1ncco1 [Ex-129, 3-amino-N-(5-fluoro-2-hydroxybenzyl)-6-methyl-5-(1,3-oxazol-2-yl)pyrazine-2-carboxamide] | 0.198
Cc1nc(C(=O)N[C@H]2c3ccccc3C[C@@H]2O)c(N)nc1-c1ncco1 [Ex-130, 3-amino-N-[(1S,2S)-2-hydroxy-2,3-dihydro-1H-inden-1-yl]-6-methyl-5-(1,3-oxazol-2-yl)pyrazine-2-carboxamide] | 3.41
Cc1nc(C(=O)N2CCC2c2ccccc2)c(N)nc1-c1ncco1 (stereo not drawn) [Ex-131, 5-methyl-6-(1,3-oxazol-2-yl)-3-[(2-phenylazetidin-1-yl)carbonyl]pyrazin-2-amine] | 10.3
Cc1nc(C(=O)NCc2cccs2)c(N)nc1-c1ncco1 [Ex-132, 3-amino-6-methyl-5-(1,3-oxazol-2-yl)-N-(thiophen-2-ylmethyl)pyrazine-2-carboxamide] | 0.357
Cc1nc(C(=O)NCc2ccc(C(C)C)cc2)c(N)nc1-c1ncco1 [Ex-133, 3-amino-6-methyl-N-[4-(1-methylethyl)benzyl]-5-(1,3-oxazol-2-yl)pyrazine-2-carboxamide] | 2.59
Cc1nc(C(=O)NCc2ccc(C3CC3)cc2)c(N)nc1-c1ncco1 [Ex-134, 3-amino-N-(4-cyclopropylbenzyl)-6-methyl-5-(1,3-oxazol-2-yl)pyrazine-2-carboxamide] | 3.39
Cc1cccc(CNC(=O)c2nc(C)c(-c3ncco3)nc2N)c1F [Ex-135, 3-amino-N-(2-fluoro-3-methylbenzyl)-6-methyl-5-(1,3-oxazol-2-yl)pyrazine-2-carboxamide] | 0.169
Cc1cc(C)c(CNC(=O)c2nc(C)c(-c3ncco3)nc2N)c(C)c1 [Ex-136, 3-amino-6-methyl-5-(1,3-oxazol-2-yl)-N-(2,4,6-trimethylbenzyl)pyrazine-2-carboxamide] | 0.267
Cc1cc(CNC(=O)c2nc(C)c(-c3ncco3)nc2N)ccc1F [Ex-137, 3-amino-N-(4-fluoro-3-methylbenzyl)-6-methyl-5-(1,3-oxazol-2-yl)pyrazine-2-carboxamide] | 0.307
Cc1nc(C(=O)N[C@H]2CCc3ccccc32)c(N)nc1-c1ncco1 [Ex-138, 3-amino-N-[(1S)-2,3-dihydro-1H-inden-1-yl]-6-methyl-5-(1,3-oxazol-2-yl)pyrazine-2-carboxamide] | 0.588
CCc1ccc(CNC(=O)c2nc(C)c(-c3ncco3)nc2N)cc1 [Ex-139, 3-amino-N-(4-ethylbenzyl)-6-methyl-5-(1,3-oxazol-2-yl)pyrazine-2-carboxamide] | 3.03
Cc1nc(C(=O)N[C@@H]2CCc3ccccc32)c(N)nc1-c1ncco1 [Ex-140, 3-amino-N-[(1R)-2,3-dihydro-1H-inden-1-yl]-6-methyl-5-(1,3-oxazol-2-yl)pyrazine-2-carboxamide] | 0.225
Cc1nc(C(=O)NCc2cccn2C)c(N)nc1-c1ncco1 [Ex-141, 3-amino-6-methyl-N-[(1-methyl-1H-pyrrol-2-yl)methyl]-5-(1,3-oxazol-2-yl)pyrazine-2-carboxamide] | 0.391
Cc1nc(C(=O)NCc2ccc(C)n2C)c(N)nc1-c1ncco1 [Ex-142, 3-amino-N-[(1,5-dimethyl-1H-pyrrol-2-yl)methyl]-6-methyl-5-(1,3-oxazol-2-yl)pyrazine-2-carboxamide] | 0.704
COc1cccc(CNC(=O)c2nc(C)c(-c3ncco3)nc2N)c1 [Ex-143, 3-amino-N-(3-methoxybenzyl)-6-methyl-5-(1,3-oxazol-2-yl)pyrazine-2-carboxamide] | 1.72
COc1ccccc1CNC(=O)c1nc(C)c(-c2ncco2)nc1N [Ex-144, 3-amino-N-(2-methoxybenzyl)-6-methyl-5-(1,3-oxazol-2-yl)pyrazine-2-carboxamide] | 0.382
Cc1nc(C(=O)N[C@H]2COc3ccccc32)c(N)nc1-c1ncco1 [Ex-147, 3-amino-N-[(3R)-2,3-dihydro-1-benzofuran-3-yl]-6-methyl-5-(1,3-oxazol-2-yl)pyrazine-2-carboxamide] | 0.601
COc1ccc(CNC(=O)c2nc(C)c(-c3ncco3)nc2N)cc1 [Ex-148, 3-amino-N-(4-methoxybenzyl)-6-methyl-5-(1,3-oxazol-2-yl)pyrazine-2-carboxamide] | 15.8
Cc1nc(C(=O)NCc2nc3ccccc3s2)c(N)nc1-c1ncco1 [Ex-149, 3-amino-N-(1,3-benzothiazol-2-ylmethyl)-6-methyl-5-(1,3-oxazol-2-yl)pyrazine-2-carboxamide] | 0.855
Cc1nc(C(=O)N2Cc3cncnc3C2)c(N)nc1-c1ncco1 [Ex-151, 3-(5,7-dihydro-6H-pyrrolo[3,4-d]pyrimidin-6-ylcarbonyl)-5-methyl-6-(1,3-oxazol-2-yl)pyrazin-2-amine] | 4.58
Cc1nc(C(=O)NCc2ccccc2O)c(N)nc1-c1ncco1 [Ex-153, 3-amino-N-(2-hydroxybenzyl)-6-methyl-5-(1,3-oxazol-2-yl)pyrazine-2-carboxamide] | 0.141
Cc1ccc(O)c(CNC(=O)c2nc(C)c(-c3ncco3)nc2N)c1 [Ex-154, 3-amino-N-(2-hydroxy-5-methylbenzyl)-6-methyl-5-(1,3-oxazol-2-yl)pyrazine-2-carboxamide] | 0.125
Cc1nc(C(=O)NCc2ccc(O)cc2)c(N)nc1-c1ncco1 [Ex-155, 3-amino-N-(4-hydroxybenzyl)-6-methyl-5-(1,3-oxazol-2-yl)pyrazine-2-carboxamide] | 13.9
Cc1nc(C(=O)N[C@@H]2c3ccccc3C[C@@H]2O)c(N)nc1-c1ncco1 [Ex-156, 3-amino-N-[(1R,2S)-2-hydroxy-2,3-dihydro-1H-inden-1-yl]-6-methyl-5-(1,3-oxazol-2-yl)pyrazine-2-carboxamide] | 68.9
Cc1nc(C(=O)N[C@@H]2COc3ccccc32)c(N)nc1-c1ncco1 [Ex-157, 3-amino-N-[(3S)-2,3-dihydro-1-benzofuran-3-yl]-6-methyl-5-(1,3-oxazol-2-yl)pyrazine-2-carboxamide] | 0.601
Cc1nc(C(=O)NCc2cccc(O)c2)c(N)nc1-c1ncco1 [Ex-158, 3-amino-N-(3-hydroxybenzyl)-6-methyl-5-(1,3-oxazol-2-yl)pyrazine-2-carboxamide] | 1.97
Cc1nc(C(=O)N[C@@H]2c3ccccc3C[C@H]2O)c(N)nc1-c1ncco1 [Ex-159, 3-amino-N-[(1R,2R)-2-hydroxy-2,3-dihydro-1H-inden-1-yl]-6-methyl-5-(1,3-oxazol-2-yl)pyrazine-2-carboxamide] | 1.2
Cc1nc(C(=O)NCc2nnc3n2CCC3)c(N)nc1-c1ncco1 [Ex-160, 3-amino-N-(6,7-dihydro-5H-pyrrolo[2,1-c][1,2,4]triazol-3-ylmethyl)-6-methyl-5-(1,3-oxazol-2-yl)pyrazine-2-carboxamide] | 264
Cc1nc(C(=O)NCc2n[nH]c3c2CCCCC3)c(N)nc1-c1ncco1 [Ex-161, 3-amino-N-(1,4,5,6,7,8-hexahydrocyclohepta[c]pyrazol-3-ylmethyl)-6-methyl-5-(1,3-oxazol-2-yl)pyrazine-2-carboxamide] | 0.293
Cc1nc(C(=O)NCc2nccc(F)c2C)c(N)nc1-c1ncco1 [Ex-162, 3-amino-N-[(4-fluoro-3-methylpyridin-2-yl)methyl]-6-methyl-5-(1,3-oxazol-2-yl)pyrazine-2-carboxamide] | 0.333
